{"source": "paper PMC9319510", "about": "“The Multistage Antimalarial Compound Calxinin Perturbates P. falciparum Ca^2+ Homeostasis by Targeting a Unique Ion Channel” (Pharmaceutics, 2022)", "test_system": "T1, voltage T-type Ca2+ channel (α1H; Cav3.1)", "T1 construct": "gene CACNA1H; α1H cDNA in pcDNA3, expressed in HEK 293 cells; Cav3.1 would be α1G (CACNA1G)", "experiment": "whole-cell patch clamp", "type": "cell-based, Homo sapiens", "conditions": "HEK-293 cells stably expressing α1H; 5 mM CaCl2 external, pH 7.4; Vh -90 mV; positive control, data not shown"}
{"compound": "CN1CCN(c2ncc(-c3cc(Cl)cc(Cl)c3Cl)c(N)n2)CC1", "note": "[Sipatrigine]", "values": [{"measurement": "IC50", "value": "~30", "unit": "µM"}]}
